Source: patent US20220249435A1, “Applications of Butyrolactone-I in Preparing Medicine for Preventing Neuroinflammation and/or Memory and Cognitive Disorders” (priority 2021, published 2022)

Legend:
Type in all cases: in vivo
GSH = GSH level in brain tissue of zebrafish; details: food with 25, 50, 100 mg/kg for 20 days; AlCl3 intraperitoneally; brain supernatant; FIG. 3A
Method: (§1) 75 zebrafish (3.0±0.4 cm) are randomly classified into control group, AlCl3 model group and 3 experimental groups with 15 zebrafish in each group, zebrafish in the experimental group are fed with food with butyrolactone-I content of 25 mg/kg, 50 mg/kg and 100 mg/kg for 20 days. zebrafish in control group and model group are fed the same amount of normal food respectively. 20 days later, after anesthesia, zebrafish in model group and experimental group are injected with AlCl3 solution (4.2 mg/mL, 5μL, pH=5.0±0.2) intraperitoneally, while zebrafish in the control group are injected with the same amount of normal saline. Memory test is performed in T maze 24 hours after injection.
(§2) 24 hours after the behavior test, the fish are euthanized, and every five fish in each group is a sample. The brain, surrounding tissues and intestines are collected and stored in a refrigerator at −80° C. All samples (except intestinal tract) are homogenized in phosphate buffer solution for further analysis. Centrifuging is conducted at 4° C. for 15 min at 1500 r/min, and the supernatant is collected. The changes of GSH level and AChE activity of tissue biomarkers are detected by using brain supernatant of zebrafish. […] According to OD value, the regression equation of IL-1β and TNF-α standard curves is calculated, and the logistic curve (4 parameters each) is used as a fitting model. […]

IL-1β = assay: Level of inflammatory factor IL-1β in brain and peripheral tissues of zebrafish
Method: as §1
(§3) 24 hours after the behavior test, the fish are euthanized, and every five fish in each group is a sample. The brain, surrounding tissues and intestines are collected and stored in a refrigerator at −80° C. All samples (except intestinal tract) are homogenized in phosphate buffer solution for further analysis. Centrifuging is conducted at 4° C. for 15 min at 1500 r/min, and the supernatant is collected. The changes of GSH level and AChE activity of tissue biomarkers are detected by using brain supernatant of zebrafish. In addition, brain samples and supernatant of peripheral tissues of zebrafish are used to determine the levels of IL-1β and TNF-α. The results are expressed by the activity of AChE per gram of protein and the amount of glutathione per gram of protein. According to OD value, the regression equation of IL-1β and TNF-α standard curves is calculated, and the logistic curve (4 parameters each) is used as a fitting model.
Graphpad Prism 8.0 is used for mapping, and One-way ANOVA and Dunnett's post hoc test are used to evaluate the differences between model group and control group, experimental group and model group.

AChE = AChE activity in brain tissue of zebrafish; details: food with 25, 50, 100 mg/kg for 20 days; AlCl3 intraperitoneally; brain supernatant; FIG. 3B
Method: as §1, §2

TNF-α = assay: Level of inflammatory factor TNF-α in brain tissues of zebrafish; details: AlCl3 model, FIGS. 3E-3F
Method: as §1, §2

[1] = system: zebrafish intestinal flora; assay: Intestinal flora of zebrafish by 16S V3-V4 sequencing
Method: as §1, §3
Genomic DNA is extracted from 15 intestinal samples by proteinase K cleavage method, and sent to TinyGene Bio-Tech (ShangHai) Co., Ltd. for sequencing. The selected target gene is 16S V3-V4. According to the requirements of illumina high-throughput sequencing, two-way sequencing is carried out, and the target region and the fusion primer with “5′ linker-barcode-sequencing primer-specific primer-3′” are designed. The fusion primer comprises the following primers: […]
The library is constructed by a two-step PCR amplification method. First, specific primers (hereinafter described as inner primers) are used to amplify the target fragments, and then gel recovery is carried out on the target fragments. Then, the recovered products are used as templates for secondary PCR amplification (hereinafter described as outer primers for amplification). The purpose of amplification is to add the linker, sequencing primer and barcode needed by illumina platform sequencing to both ends of the target fragment.
AxyPrepDNA gel recovery kit is used for recovery, FTC-3000™ real-time PCR is used for real-time fluorescence quantification, and then Illumina high-throughput sequencing and bioinformatics analysis are performed. The length of the sequence is 450 bp, and the sequencing result is the original data, and quality of the sequence is evaluated and optimized. Trimmomatic is used for sequence filtering and FLASH for jointing. Then ambiguity, homology and some chimeras generated in PCR are screened by motherur V. 1.39.5, and the optimized sequence for subsequent clustering OTU (operational taxonomic unit) and species information analysis is obtained. Using the software USEARCH, the jointed sequences are clustered into OTU (at 97% similarity level) for later analysis.
VENN diagram may be used to count the number of common and unique OTU in multiple samples, and may intuitively show the similarity and overlap of OTU numbers of environmental samples. Usually the OTU sample table with a similar level of 97% is selected for analysis.
Alpha diversity analysis reflects the richness and diversity of communities in the sample, using motheru (http://www.mothur.org/wiki/Schloss SOP#Alpha diversity) to calculate shannon, simpson, chao and ace indices, and using R (3.4.1) language tool to make charts. […]

zebrafish = assay: T maze memory test in AlCl3-injected zebrafish
Method: Adult wild AB zebrafish (male: female ratio is 50%: 50%) with good growth of about 6-8 months are acclimated in a 50 L water tank for 2 weeks, the temperature is 25±2° C., the light-dark cycle is 14 hours: 10 hours, and Artemia larvae are fed at 9 am and 2 pm respectively.
as §1
4 days before intraperitoneal injection, 6 fish are randomly selected from each group, and each day, they are trained separately in T maze for 5 minutes to find the eutrophic EC area. […] After 4 days of training, on the 5th day (24 hours after intraperitoneal injection), the behavior of the trained fish is tested in T maze. If the fish enters EC area and stays for more than 30 s, a valid incubation period is recorded. […] The behavioral test is conducted between 10 am and 1 pm. The Microsoft LifeCam Studio 1080p HD camera and powersoft software (Powersoft Co., Ltd., Hong Kong, China) are used to record videos. Supersys software is used to analyze the latent time (s), average swimming speed (cm/s) and the times of entering the EC zone for the first time.

[2] = phylum level, oral, AlCl3 model

COC(=O)[C@@]1(Cc2ccc(O)c(CC=C(C)C)c2)OC(=O)C(O)=C1c1ccc(O)cc1 [butyrolactone-I]
GSH level in brain tissue of zebrafish (GSH): increase GSH level in brain tissue of zebrafish in a dose-dependent manner
level of inflammatory factor IL-1β in the brain of zebrafish (IL-1β; brain, AlCl3 model, FIG. 3C): reduce the level
nerve inflammation of zebrafish caused by aluminum trichloride (IL-1β; overall conclusion of biochemical indexes): obviously improve
level of inflammatory factor IL-1β in peripheral tissues of zebrafish (IL-1β; peripheral tissues, AlCl3 model, FIG. 3D): reduce the level
AChE activity in brain tissue of zebrafish (AChE): inhibit AChE activity
level of inflammatory factor TNF-α in brain tissues of zebrafish (TNF-α): reduce the level
abundance of Alpinimonas ([1]; genus level, oral, AlCl3 model): down-regulate
abundance of Bacillus ([1]; genus level, oral, AlCl3 model): up-regulate
abundance of Bosea ([1]; genus level, oral, AlCl3 model): down-regulate
abundance of Cetobacterium ([1]; genus level, oral, AlCl3 model): down-regulate
abundance of Mycobacterium ([1]; genus level, oral, AlCl3 model): down-regulate
abundance of Phreatobacter ([1]; genus level, oral, AlCl3 model): down-regulate
abundance of Singulisphaera ([1]; genus level, oral, AlCl3 model): down-regulate
disturbance of zebrafish intestinal flora caused by aluminum trichloride ([1]; overall conclusion): regulate the disturbance
abundance of Chlamydiae [1, 2]: down-regulate
abundance of Chloroflexi [1, 2]: down-regulate
abundance of Fusobacterium [1, 2]: down-regulate
abundance of Planctomycetes [1, 2]: down-regulate
abundance of Phylum Firmicutes ([1]; phylum level, oral, AlCl3 model, FIGS. 4A-4B): up-regulate
latent time for zebrafish to find the EC zone (zebrafish; food with 25, 50, 100 mg/kg butyrolactone-I for 20 days, AlCl3 intraperitoneally, T maze 24 hours after injection, FIG. 1A): shorten the latent time
average swimming speed of zebrafish (zebrafish; food with 25, 50, 100 mg/kg for 20 days, AlCl3 intraperitoneally, T maze, FIG. 1B): increase the average swimming speed
number of times that zebrafish enter the eutrophic EC zone (zebrafish; food with 25, 50, 100 mg/kg for 20 days, AlCl3 intraperitoneally, T maze, FIG. 1C): add the number of times
lingering time of zebrafish in EC area (zebrafish; food with 25, 50, 100 mg/kg for 20 days, AlCl3 intraperitoneally, T maze, FIGS. 2A-2E): prolong the lingering time
memory and cognitive disorder of zebrafish caused by aluminum trichloride (zebrafish; overall conclusion of T maze test): obviously improve
